From patent US20260226006A1, “INDOLE COMPOUND, PREPARATION METHOD THEREFOR AND USE THEREOF” (SUZHOU MERNA THERAPEUTICS CO. LTD, priority 2023, published 2026)

Assays:
[1] = tested on: paw plantar skin of rats; experiment: Rat models with hand-foot skin reaction, topical ointment (Example 22); assay type: in vivo, SD rats; details: for Incidence rate: 30 days; for incidence rate of hand-foot skin reaction at a drug application site: compounds at a mass content of 1% in ointment; for incidence rate of hand-foot skin reaction in all paws of the rats: compounds at mass contents of 3% and 10% in ointment; for differentiation of keratinocytes both in vitro and in vivo: summary of Examples 21 and 22
Protocol: After adaptive feeding for one week, SD rats (with a body weight of approximately 200 g) were randomly divided into groups according to the body weight, with 12 rats in each group. Modeling drugs (including sorafenib, erlotinib, afatinib, and osimertinib) were respectively dissolved in a solution containing 5% of DMSO, 45% of PEG400, and 50% of H2O, and the modeling drugs were diluted to required concentrations and then administered once daily by gavage at doses shown in Table 3. After administration by gavage for 1 hour, 0.05 g of ointments containing different mass proportions of test compounds were evenly applied to left paws of the rats, a blank matrix ointment was applied to right paws of the rats to serve as a self-control, and no ointment was applied to the rats in a blank control group. After drug application, four limbs were continuously immobilized for 2 hours, then wiped with clean water to remove the residual drugs, removed from immobilization, and restored to free movement. The modeling drugs, the blank matrix ointment, and the ointments containing the test compounds were all administered once daily. After continuous administration for 30 days, the rats were euthanized, and paw plantar skin tissues were collected, fixed in 10% neutral formalin, […]. The ointments for the test compounds were prepared by mixing the compounds, white beeswax, white petrolatum, and light liquid paraffin in specific ratios (weight ratios of 3 ointments were respectively 1:18:58:23, 3:18:57:22, and 10:20:40:30). The blank matrix ointment was prepared by mixing white beeswax, white petrolatum, and light liquid paraffin in a specific ratio (weight ratio of 18:60:22).
Tissue staining: After dewaxing and rehydration, the paw plantar skin tissue sections of the above rats were stained in a hematoxylin solution for several minutes, cleaned, and placed in 1% acid alcohol for soaking until the sections faded to light blue-red. After cleaning with running water for 5 minutes, the sections were stained with eosin for 2-3 minutes, cleaned to remove excess dyes, dehydrated, then permeabilized by adding xylene for several minutes, and sealed and fixed with a neutral resin. The stratum corneum was observed under an optical microscope, and the thickness of the epidermal stratum corneum was measured using Dmetrix software.
Immunohistochemical staining: After dewaxing and hydration, the paw plantar skin tissue sections of the above rats were incubated with 3% H2O2 at room temperature for 30 minutes and blocked with 10% goat serum for 30 minutes after antigen retrieval. A KRT1 antibody (Abcam, ab93652) and a Loricrin antibody (Abcam, ab183646) were added dropwise, the sections were incubated overnight at 4° C., and an HRP secondary antibody (ZSGB-BIO, PV-6001) and a DAB kit (ZSG-BIO, ZLI9017) were added for color development. The sections were re-stained with hematoxylin, cleaned, and sealed and fixed with a neutral resin, and the expression amounts of KRT1 and Loricrin were observed under an optical microscope.
An incidence rate calculation method involves a proportion of animals in each group meeting the above criteria for determining successful modeling, that is, incidence rate=(number of successfully modeled rats/total number of rats in the group)*100%. […]

[2] = tested on: HaCaT keratinocytes; experiment: Inhibition of HBEGF-induced differentiation of HaCaT keratinocytes, marker mRNA by RT-PCR (Example 21); assay type: cell-based, human; details: 2.5 ng/mL human recombinant HBEGF protein + test compound, 24 hours
How it was run: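 HaCaT cells cultured 24 h at 37° C, then exposed for 24 h to 2.5 ng/mL recombinant human HBEGF with test compounds; DMSO and HBEGF-only controls. Total RNA (1 μg) reverse-transcribed; KRT1, KRT10, Loricrin and Involucrin mRNA measured by SYBR RT-PCR and agarose gel electrophoresis.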

[3] = tested on: HaCat cells; experiment: m6A methylation level of human HaCat keratinocytes, EpiQuik m6A RNA methylation quantification kit (Example 20); assay type: cell-based; details: for abnormal increase in the RNA m6A level of human keratinocytes caused by chemotherapeutic drugs and multikinase inhibitors: 400 nM compound after 50 nM drug; for m6A fold change relative to control group 1: HaCat cells, 24 hours
How it was run: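 HaCat keratinocytes in DMEM/10% FBS given 50 nM sorafenib, capecitabine, docetaxel or osimertinib, then 400 nM test compound or nicotinamide, and cultured 24 hours at 37° C. Total RNA m6A quantified by EpiQuik ELISA at 450 nm against a standard curve, expressed as percentage of RNA input.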

[4] = afatinib 50 mg/kg, 1% compound ointment on left paw, left paw
[5] = afatinib 50 mg/kg, 1% compound ointment on left paw, right paw (blank matrix ointment)
[6] = afatinib 50 mg/kg, 3% compound ointment on left paw, left paw
[7] = afatinib 50 mg/kg, 3% compound ointment on left paw, right paw (blank matrix ointment)
[8] = afatinib 50 mg/kg, 10% compound ointment on left paw, left paw
[9] = afatinib 50 mg/kg, 10% compound ointment on left paw, right paw (blank matrix ointment)
[10] = erlotinib 70 mg/kg, 1% compound ointment on left paw, left paw
[11] = erlotinib 70 mg/kg, 1% compound ointment on left paw, right paw (blank matrix ointment)
[12] = erlotinib 70 mg/kg, 3% compound ointment on left paw, left paw
[13] = erlotinib 70 mg/kg, 3% compound ointment on left paw, right paw (blank matrix ointment)
[14] = erlotinib 70 mg/kg, 10% compound ointment on left paw, left paw
[15] = erlotinib 70 mg/kg, 10% compound ointment on left paw, right paw (blank matrix ointment)
[16] = osimertinib 60 mg/kg, 1% compound ointment on left paw, left paw
[17] = osimertinib 60 mg/kg, 1% compound ointment on left paw, right paw (blank matrix ointment)
[18] = osimertinib 60 mg/kg, 3% compound ointment on left paw, left paw
[19] = osimertinib 60 mg/kg, 3% compound ointment on left paw, right paw (blank matrix ointment)
[20] = osimertinib 60 mg/kg, 10% compound ointment on left paw, left paw
[21] = osimertinib 60 mg/kg, 10% compound ointment on left paw, right paw (blank matrix ointment)
[22] = paw plantar skin of modeled rats, topical ointment
[23] = sorafenib 100 mg/kg, 1% compound ointment on left paw, left paw
[24] = sorafenib 100 mg/kg, 1% compound ointment on left paw, right paw (blank matrix ointment)
[25] = sorafenib 100 mg/kg, 3% compound ointment on left paw, left paw
[26] = sorafenib 100 mg/kg, 3% compound ointment on left paw, right paw (blank matrix ointment)
[27] = sorafenib 100 mg/kg, 10% compound ointment on left paw, left paw
[28] = sorafenib 100 mg/kg, 10% compound ointment on left paw, right paw (blank matrix ointment)
[29] = 50 nM capecitabine + 400 nM test compound
[30] = 50 nM docetaxel + 400 nM test compound
[31] = 50 nM osimertinib + 400 nM test compound
[32] = 50 nM sorafenib + 400 nM test compound

SMILES	Incidence rate [1, 4]	Incidence rate [1, 5]	Incidence rate [1, 6]	Incidence rate [1, 7]	Incidence rate [1, 8]	Incidence rate [1, 9]	incidence rate of hand-foot skin reaction at a drug application site [1]	incidence rate of hand-foot skin reaction in all paws of the rats [1]	Incidence rate [1, 10]	Incidence rate [1, 11]	Incidence rate [1, 12]	Incidence rate [1, 13]	Incidence rate [1, 14]	Incidence rate [1, 15]	Incidence rate [1, 16]	Incidence rate [1, 17]	Incidence rate [1, 18]	Incidence rate [1, 19]	Incidence rate [1, 20]	Incidence rate [1, 21]	further results
NC(=O)[C@H]1CCCc2c1[nH]c1ccc(Cl)cc21 [Compound 2b, (S)-6-chloro-2,3,4,9-tetrahydro-1H-carbazole-1-carboxamide]	3/12 (25%)	9/12 (75%)	2/12 (17%)	4/12 (33%)	0/12 (0%)	3/12 (25%)	significantly decrease	significantly decrease	3/12 (25%)	10/12 (83%)	2/12 (17%)	5/12 (42%)	1/12 (8%)	4/12 (33%)	2/12 (17%)	8/12 (67%)	2/12 (17%)	4/12 (33%)	0/12 (0%)	3/12 (25%)	formation of blisters, inflammatory cell infiltration in the dermis and skin congestion (pathological scoring) [1, 22]: effectively improve; formation of blisters, inflammatory cell infiltration in the dermis and skin congestion (tissue staining) [1, 22]: effectively improve; Incidence rate [1, 23]: 2/12 (17%); Incidence rate [1, 24]: 9/12 (75%); Incidence rate [1, 25]: 2/12 (17%); Incidence rate [1, 26]: 4/12 (33%); Incidence rate [1, 27]: 0/12 (0%); Incidence rate [1, 28]: 4/12 (33%); differentiation of keratinocytes both in vitro and in vivo [1]: effectively inhibit; stratum corneum thickness of the paw plantar skin of the modeled rats ([1]; topical ointment): effectively decrease; mRNA expression amounts of HaCaT differentiation markers KRT1, KRT10, Loricrin, and Involucrin [2]: significantly inhibited; abnormal increase in the RNA m6A level of human keratinocytes caused by chemotherapeutic drugs and multikinase inhibitors [3]: effectively inhibit; m6A fold change relative to control group 1 [3, 29]: 1.1; m6A fold change relative to control group 1 [3, 30]: 1.0; m6A fold change relative to control group 1 [3, 31]: 1.2; m6A fold change relative to control group 1 [3, 32]: 1.4
CN1CC[C@H](C(N)=O)c2[nH]c3ccc(Cl)cc3c21 [Compound 8b, (S)-8-chloro-1-methyl-2,3,4,5-tetrahydropyrido[3,2-b]indole-4-carboxamide]	1/12 (8%)	9/12 (75%)	1/12 (8%)	4/12 (33%)	0/12 (0%)	1/12 (8%)	significantly decrease	significantly decrease	2/12 (17%)	10/12 (83%)	1/12 (8%)	4/12 (33%)	0/12 (0%)	0/12 (0%)	1/12 (8%)	9/12 (75%)	1/12 (8%)	3/12 (25%)	0/12 (0%)	0/12 (0%)	formation of blisters, inflammatory cell infiltration in the dermis and skin congestion (pathological scoring) [1, 22]: effectively improve; Incidence rate [1, 23]: 1/12 (8%); Incidence rate [1, 24]: 8/12 (67%); Incidence rate [1, 25]: 1/12 (8%); Incidence rate [1, 26]: 3/12 (25%); Incidence rate [1, 27]: 0/12 (0%); Incidence rate [1, 28]: 1/12 (8%); differentiation of keratinocytes both in vitro and in vivo [1]: effectively inhibit; stratum corneum thickness of the paw plantar skin of the modeled rats ([1]; topical ointment): effectively decrease; mRNA expression amounts of HaCaT differentiation markers KRT1, KRT10, Loricrin, and Involucrin [2]: significantly inhibited; abnormal increase in the RNA m6A level of human keratinocytes caused by chemotherapeutic drugs and multikinase inhibitors [3]: effectively inhibit; m6A fold change relative to control group 1 [3, 29]: 1.0; m6A fold change relative to control group 1 [3, 30]: 1.2; m6A fold change relative to control group 1 [3, 31]: 1.0; m6A fold change relative to control group 1 [3, 32]: 1.0
